This note sets out measurements from ChEMBL document CHEMBL2062519, “The β-Amyloid Hypothesis in Alzheimer's Disease: Seeing Is Believing” (ACS Med Chem Lett, 2012).

In this assay the target is Amyloid-beta precursor protein (Homo sapiens, UniProt P05067). The assay is described as follows: Binding affinity to human amyloid beta plaque.
Sequence of Amyloid-beta precursor protein (P05067 whole entry): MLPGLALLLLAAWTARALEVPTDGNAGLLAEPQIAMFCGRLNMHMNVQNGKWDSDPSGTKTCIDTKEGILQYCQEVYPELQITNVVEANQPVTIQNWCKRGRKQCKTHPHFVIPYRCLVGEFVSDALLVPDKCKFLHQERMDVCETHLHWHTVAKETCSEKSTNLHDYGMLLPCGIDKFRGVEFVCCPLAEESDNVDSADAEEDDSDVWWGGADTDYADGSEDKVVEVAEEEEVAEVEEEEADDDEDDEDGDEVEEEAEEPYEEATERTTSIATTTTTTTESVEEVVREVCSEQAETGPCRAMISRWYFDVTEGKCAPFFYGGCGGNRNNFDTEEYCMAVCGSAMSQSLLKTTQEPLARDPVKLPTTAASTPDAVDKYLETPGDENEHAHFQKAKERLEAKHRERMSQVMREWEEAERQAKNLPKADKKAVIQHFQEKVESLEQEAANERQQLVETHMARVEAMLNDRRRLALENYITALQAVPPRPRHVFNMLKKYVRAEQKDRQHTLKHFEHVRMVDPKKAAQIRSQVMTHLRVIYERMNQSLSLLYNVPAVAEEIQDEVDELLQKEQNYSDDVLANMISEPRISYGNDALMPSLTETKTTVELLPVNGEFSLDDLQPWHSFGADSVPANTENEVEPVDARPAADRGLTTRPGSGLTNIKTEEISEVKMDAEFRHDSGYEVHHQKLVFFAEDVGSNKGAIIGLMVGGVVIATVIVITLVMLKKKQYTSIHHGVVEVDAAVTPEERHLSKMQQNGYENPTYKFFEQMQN

The compound `CNc1ccc(-c2nc3ccc(O)cc3s2)cc1[18F]` [FLUTEMETAMOL F 18] had a Ki of 700 pM.
